Measurements as given in ChEMBL document CHEMBL1127074, “Novel hypotensive agents from Verbesina caracasana. 2. Synthesis and pharmacology of caracasanamide” (1993).

What was measured:
Rattus norvegicus [1] = test: Tested for the change in diastolic blood pressure administered at 8 ug/kg intravenously in anesthetized rats; assay type: functional, Artery
Rattus norvegicus [2] = test: Tested for change in heart rate administered at 8 uM/kg iv in anesthetized rats; assay type: functional
Rattus norvegicus [3] = test: Maximum rate of rise of the left ventricular isovolumetric pressure administered at 8 uM/kg iv in anesthetized rats; assay type: functional, Heart left ventricle
Rattus norvegicus [4] = test: Tested for the change in systolic blood pressure administered at 8 ug/kg intravenously in anesthetized rats; assay type: functional, Artery
Rattus norvegicus [5] = test: Maximum rate of rise of the left ventricular isovolumetric pressure administered at 25 uM/kg iv in anesthetized rats; assay type: functional, Heart left ventricle
Rattus norvegicus [6] = test: Tested for the change in systolic blood pressure administered at 25 ug/kg intravenously in anesthetized rats; assay type: functional, Artery
Rattus norvegicus [7] = test: Tested for change in heart rate administered at 25 uM/kg iv in anesthetized rats; assay type: functional
Rattus norvegicus [8] = test: Tested for the change in diastolic blood pressure administered at 25 ug/kg intravenously in anesthetized rats; assay type: functional, Artery
Rattus norvegicus [9] = test: Maximum rate of rise of the left ventricular isovolumetric pressure administered at 5 uM/kg iv in anesthetized rats; assay type: functional, Heart left ventricle
Rattus norvegicus [10] = test: Tested for the change in diastolic blood pressure administered at 5 ug/kg intravenously in anesthetized rats; assay type: functional, Artery
Rattus norvegicus [11] = test: Tested for the change in systolic blood pressure administered at 5 ug/kg intravenously in anesthetized rats; assay type: functional, Artery
Rattus norvegicus [12] = test: Tested for change in heart rate administered at 5 uM/kg iv in anesthetized rats; assay type: functional
Rattus norvegicus [13] = test: Maximum rate of rise of the left ventricular isovolumetric pressure administered at 12 uM/kg iv in anesthetized rats; assay type: functional, Heart left ventricle
Rattus norvegicus [14] = test: Tested for the change in systolic blood pressure administered at 12 ug/kg intravenously in anesthetized rats; assay type: functional, Artery
Rattus norvegicus [15] = test: Tested for change in heart rate administered at 12 uM/kg iv in anesthetized rats; assay type: functional
Rattus norvegicus [16] = test: Tested for the change in diastolic blood pressure administered at 12 ug/kg intravenously in anesthetized rats; assay type: functional, Artery

SMILES: COC(=O)[C@H]1[C@H]2C[C@@H]3c4[nH]c5cc(OC)ccc5c4CCN3C[C@H]2C[C@@H](OC(=O)c2cc(OC)c(OC)c(OC)c2)[C@@H]1OC [RESERPINE]
- Blood pressure (Rattus norvegicus [1]): -24 mmHg
- Heart rate (Rattus norvegicus [2]): -47 beats min-1
- dp/dt (Rattus norvegicus [3]): -1580 mmHg s-1
- Blood pressure (Rattus norvegicus [4]): -31 mmHg

SMILES: N=C(N)NCCN1CCCCCCC1 [GUANETHIDINE]
- dp/dt (Rattus norvegicus [5]): -863 mmHg s-1
- Blood pressure (Rattus norvegicus [6]): -27 mmHg
- Heart rate (Rattus norvegicus [7]): -18 beats min-1
- Blood pressure (Rattus norvegicus [8]): -19 mmHg

SMILES: COc1ccc(Cc2nccc3cc(OC)c(OC)cc23)cc1OC [PAPAVERINE]
- dp/dt (Rattus norvegicus [9]): -604 mmHg s-1
- Blood pressure (Rattus norvegicus [10]): -18 mmHg
- Blood pressure (Rattus norvegicus [11]): -23 mmHg
- Heart rate (Rattus norvegicus [12]): -21 beats min-1

SMILES: C[N+](C)(C)CCCCCC[N+](C)(C)C.[Cl-].[Cl-] [HEXAMETHONIUM CHLORIDE]
- dp/dt (Rattus norvegicus [13]): -4040 mmHg s-1
- Blood pressure (Rattus norvegicus [14]): -44 mmHg
- Heart rate (Rattus norvegicus [15]): -48 beats min-1
- Blood pressure (Rattus norvegicus [16]): -34 mmHg
